One block for each compound: values may come before it.
Biological target: T1, 5-Lipoxygenase (Homo sapiens, UniProt P09917)
T1 construct: Human heparinized whole blood was preincubated with test compounds; from tissue; host or cells: human heparinized whole blood
T1 sequence (P09917 1-674): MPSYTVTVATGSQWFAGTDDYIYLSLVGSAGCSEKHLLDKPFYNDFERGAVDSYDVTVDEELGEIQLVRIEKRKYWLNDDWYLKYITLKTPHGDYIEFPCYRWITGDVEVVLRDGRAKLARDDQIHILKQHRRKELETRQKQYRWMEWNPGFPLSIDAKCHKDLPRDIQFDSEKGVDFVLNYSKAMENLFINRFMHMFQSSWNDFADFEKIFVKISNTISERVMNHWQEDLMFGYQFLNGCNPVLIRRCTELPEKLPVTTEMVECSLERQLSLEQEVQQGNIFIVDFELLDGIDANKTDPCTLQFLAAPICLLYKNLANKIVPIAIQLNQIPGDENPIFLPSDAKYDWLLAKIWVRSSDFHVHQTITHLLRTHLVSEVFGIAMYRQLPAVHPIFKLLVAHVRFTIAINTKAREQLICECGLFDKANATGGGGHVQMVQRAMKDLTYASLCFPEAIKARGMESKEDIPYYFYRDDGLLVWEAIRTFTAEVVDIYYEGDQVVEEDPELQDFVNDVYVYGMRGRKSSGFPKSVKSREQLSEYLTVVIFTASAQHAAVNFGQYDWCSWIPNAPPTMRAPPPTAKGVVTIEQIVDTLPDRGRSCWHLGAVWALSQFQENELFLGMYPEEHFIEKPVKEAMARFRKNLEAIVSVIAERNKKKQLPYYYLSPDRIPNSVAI
Assay: Inhibition of calcium ionophore A23187-induced LTB4 biosynthesis in human whole blood
Type: cell-based
Conditions: human heparinized whole blood, 15 min preincubation 37° C., A23187 8.3 μM, 30 min
Experimental: Inhibition of leukotriene biosynthesis was evaluated in an assay, involving calcium ionophore-induced LTB4 biosynthesis expressed human whole blood. Human heparinized whole blood was preincubated with test compounds or vehicle for 15 min 37° C. followed by calcium ionophore A23187 challenge (final concentration of 8.3 μM) and the reaction terminated after 30 min by adding two volumes of methanol containing prostaglandin B2 as an internal recovery standard. The methanol extract was analyzed for LTB4 using a commercially available radioimmunoassay.

In vitro inhibitory potency against 5-lipoxygenase from stimulated LTB4 formation in human whole blood (percent inhibition) (@ 1.56 μM): 100%
SMILES: CON=C(c1cc(F)cc(OCc2ccc(N(C)C(C)=O)cc2)c1)C1CCOCC1 [Example 1, E- and Z-O-Methyl-4-[(3-(4-(N-acetyl-N-methylamino)benzyloxy)-5-fluoro-phenyl)oximinomethyl]tetrahydropyran]

In vitro inhibitory potency against 5-lipoxygenase from stimulated LTB4 formation in human whole blood (percent inhibition) (@ 3.13 μM): 12%
SMILES: CON=C(c1cc(F)cc(OCc2cccc(N(C)C(=O)N(C)C)c2)c1)C1CCOCC1 [Example 43, E- and Z-O-Methyl-4-[(3-(3-(N',N'-dimethylaminocarbonyl-N-methylamino)-benzyloxy)-5-fluoro-phenyl)oximinomethyl]tetrahydropyran]

In vitro inhibitory potency against 5-lipoxygenase from stimulated LTB4 formation in human whole blood (percent inhibition) (@ 0.78 μM): 100%
SMILES: CON=C(c1cc(F)cc(OCc2ccc(N(C)C(=O)N(C)C)cc2)c1)C1CCOCC1 [Example 5, E- and Z-O-Methyl-4-[(3-(4-N',N'-dimethylaminocarbonyl-N-methylamino)benzyloxy)-5-fluoro-phenyl)oximinomethyl]tetrahydropyran]

Reference: patent US5484786A, “Pyran-4-ylmethyl substituted arylalkylaryl-, arylalkenylylaryl-, and arylalkynylarylurea inhibitors of 5-lipoxygenase” (Abbott Laboratories, priority 1993, dated 1996)
